PMC60990 (BMC Microbiology, 2001)
Blank lines part the entries; values can stand above or below the compound they belong to.

Tests used:
[1] = target: T1, PfPP5 (Plasmodium falciparum, UniProt Q8WQR3); assay: […]-phosphohistone dephosphorylation, phosphomolybdate extraction; format: biochemical; settings: activator, 32P-phosphohistone, pH 7.5, 37°C
T1 sequence (Q8WQR3 1-594): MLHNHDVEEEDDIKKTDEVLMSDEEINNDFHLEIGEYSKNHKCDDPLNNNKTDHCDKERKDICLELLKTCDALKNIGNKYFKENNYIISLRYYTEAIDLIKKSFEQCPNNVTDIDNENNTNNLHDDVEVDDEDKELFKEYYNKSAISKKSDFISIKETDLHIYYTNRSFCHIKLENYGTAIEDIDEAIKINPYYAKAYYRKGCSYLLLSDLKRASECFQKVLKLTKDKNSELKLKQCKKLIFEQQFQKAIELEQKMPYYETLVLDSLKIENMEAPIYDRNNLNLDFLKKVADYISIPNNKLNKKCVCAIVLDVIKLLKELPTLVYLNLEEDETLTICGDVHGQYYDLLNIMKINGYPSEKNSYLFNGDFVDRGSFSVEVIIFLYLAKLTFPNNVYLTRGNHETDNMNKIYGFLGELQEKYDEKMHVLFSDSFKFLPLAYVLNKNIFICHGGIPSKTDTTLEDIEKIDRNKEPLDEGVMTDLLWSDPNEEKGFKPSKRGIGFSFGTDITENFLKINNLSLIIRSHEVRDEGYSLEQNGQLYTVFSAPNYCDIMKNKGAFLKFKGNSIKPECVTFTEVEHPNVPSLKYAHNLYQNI

[2] = target: T1, PfPP5; assay: as above; format: biochemical; settings: pH 7.5, 37°C

- fold stimulation of activity ([1]; about 70 μM fatty acid): ~ 3 fold
Compound: CCCCC/C=C\C/C=C\C/C=C\C/C=C\CCCC(=O)O [arachidonic acid]

- fold stimulation of activity ([1]; about 80 μM fatty acid): ~ 3 fold
Compound: CCCCCCCC/C=C\CCCCCCCC(=O)O [oleic acid]

Compound: CCCCCCCCCCCCCCCCCC(=O)O [stearic acid]
- 32P-phosphohistone dephosphorylation, phosphomolybdate extraction [2]: stearic acid, a saturated fatty acid, did not appreciably stimulate PfPP5 activity
